Among the data in patent publication US9034887B2, “Dihydroorotate dehydrogenase as antifungal drug target and quinazolinone-based inhibitors thereof” (F2G Limited, priority 2008, dated 2015) are IC50 and MIC values, retold here.

Experiment [1] concerns the target T1, Recombinant DHODH from human (Homo sapiens, UniProt Q02127).
T1 construct: His-tag; NusA (Nus-tag) fusion of vector pET43.1 (own knowledge of the vector) (N); made in house; host or cells: E. coli BL21 DE3
Nature of the experiment: DHODH inhibition screen (DCIP reduction, 600 nm), human enzyme. The class given is biochemical. The conditions noted are these: Table 3, read-out: IC50 values for Compound Examples 1 to 15 identified from screens, Human. Here is the method: (§1) 1. The following buffer and stock solution were prepared:
Coenzyme Q2 (Sigma) was dissolved in DMSO to give a concentration of 10 mg/ml. […] The stock solution was made with 127.36 μl DHO, 127.36 μl DCIP and 318.4 μl Coenzyme Q2, made up to 80 ml with Buffer A. Final concentrations in assay wells were; DHO, 500 μM; Coenzyme Q, 50 μM; DCIP, 100 μM.
2. […] Duplicate sets of plates were used such that one set received enzyme while a control set received no enzyme.
3. […] Then 20 μl of DHODH solution was added to all the +enzyme plates and 20 μl of Buffer A was added to all the control −enzyme plates.
(§2) 4. 20 μl of DHO/Coenzyme Q2/DCIP solution was added to all the wells, after which plates were incubated at room temperature for […] and then read on a Tecan Safire spectrophotometer at 600 nm.
Recombinant DHODH from human or C. albicans was assayed in the same way. It is necessary to adjust the enzyme concentration and reaction time to take into account variations in activity of enzyme batches, thus the incubation time was 20 minutes for the C. albicans enzyme and 34 minutes for the human enzyme.

For experiment [2], the system named is Aspergillus fumigatus AF210. Nature of the experiment: MIC in RPMI medium, A. fumigatus 210. It counts as cell-based. Conditions: 24-48 hrs at 35° C., >80% growth inhibition, read-out: MIC grade, A. fumigatus 210. Here is the method:
(§3) Between 1 and 5 mgs of compound were accurately weighed out into a sterile Eppendorf tube. The compound was dissolved in DMSO to give a solution containing 5 mg/mL. Tubes were stored at −20° C. until required.
(§4) On the day of testing thawed solutions were vortex mixed to ensure homogeneity. 30 μL of solution was removed and added to 570 μL of sterile water in a separate sterile Eppendorf. The thoroughly mixed solution was used to prepare a series of doubling dilutions in water, in a deep well plate. Thirteen replicate plates were prepared using a Minitrak by aspirating 20 μL from each well into eleven clear polystyrene 96 well plates.
(§5) Assays were also performed in RPMI medium. To perform MIC tests in this medium, dilutions of compounds are prepared in microtitre plates as described above. Fungal strains to be tested are grown and harvested in an identical manner to that described above, and each organism suspension was diluted in RPMI medium, containing 2% glucose and 0.135 M MOPS buffer (pH 7.0) to 0.5-2×10^4 cfu/mL, rather than in YAG medium. 80 μL of an organism suspension was added to each well of the plate containing drug dilutions.
(§6) All plates were incubated for 24-48 hrs at 35° C. Growth was assessed by monitoring the optical density at 485 nm for each well. […] The following organisms were tested: Aspergillus flavus, Aspergillus fumigatus AF293 and AF210, Aspergillus niger and Aspergillus terreus AT4 and AT49.

Experiment [3] deals with Aspergillus niger. Description: MIC in RPMI medium, A. niger. The class given is cell-based. Conditions: 24-48 hrs at 35° C., >80% growth inhibition, read-out: MIC grade, A. niger. The method, then:
as §3, §4, §5, §6

The subject of another experiment is A. fumigatus 210. Nature of the experiment: MIC in YAG medium, A. fumigatus 210. It counts as cell-based. Conditions: Aspergillus fumigatus, 24 hrs at 35° C., >70% growth inhibition, read-out: MIC grade, A. fumigatus 210. Here is the method:
as §3, §4
(§7) Spores of Aspergillus spp. (Aspergillus fumigatus [two strains], Aspergillus terreus [two strains], Aspergillus niger and Aspergillus flavus) were harvested from cultures grown on Sabarauds agar for 5 days, and resuspended in PBS/Tween 80 to approx 1×10^7 cfu/mL. Each organism suspension was diluted in YAG medium (1% glucose, 1% ammonium chloride and 0.5% yeast extract) to 0.5-2×10^4 cfu/mL. 80 μL of an organism suspension was added to each well of the plate containing drug dilutions.
(§8) All plates were incubated for 24 hrs at 35° C. Growth was assessed by monitoring the optical density at 485 nm for each well. The MIC of a compound is the lowest drug concentration that inhibits growth of an organism by >70% compared with a drug free control. MICs are recorded as mg/L. In cases where the MIC of an organism is […] the MIC is repeated using a concentration range of 0.5-0.0005 mg/L.

The next experiment has as its system Aspergillus fumigatus. Description: MIC in YAG medium, A. fumigatus. It counts as cell-based. Conditions: 24 hrs at 35° C., >70% growth inhibition, read-out: MIC grade, A. fumigatus. The method, then:
as §3, §4, §7, §8

The target in experiment [4] is Recombinant A. fumigatus DHODH (Aspergillus fumigatus, UniProt Q4X169). Nature of the experiment: DHODH inhibition screen (DCIP reduction, 600 nm), A. fumigatus enzyme. The class given is biochemical. Here is the method: as §1
Buffer A: 62.5 mM TrisHCl (pH8.0), 150 mM NaCl, 10% v/v glycerol
DHO/Coenzyme Q2/DCIP solution: 19.848 mg dihydroorotate (DHO; Sigma) was dissolved in 160 μl DMSO. Coenzyme Q2 (Sigma) was dissolved in DMSO to give a concentration of 10 mg/ml. 7.236 mg 2,6-dichloroindophenol (DCIP; Sigma) was dissolved in 160 μl DMSO. The stock solution was made with 127.36 μl DHO, 127.36 μl DCIP and 318.4 μl Coenzyme Q2, made up to 80 ml with Buffer A. Final concentrations in assay wells were; DHO, 500 μM; Coenzyme Q, 50 μM; DCIP, 100 μM.
2. Compounds were aliquotted into 384-well microtitre plates at a range of dilutions to give final concentrations in the assay of […]. Duplicate sets of plates were used such that one set received enzyme while a control set received no enzyme. Since compounds are frequently dissolved in DMSO or a DMSO/water mixture, assays were set up to give a final concentration of 1% (v/v) DMSO in wells.
3. Recombinant A. fumigatus DHODH was suspended in Buffer A to give a concentration of 1435.8 ng protein in 20 μl. Then 20 μl of DHODH solution was added to all the +enzyme plates and 20 μl of Buffer A was added to all the control −enzyme plates.
as §2
Recombinant DHODH from human or C. albicans was assayed in the same way. It is necessary to adjust the enzyme concentration and reaction time to take into account variations in activity of enzyme batches, thus the incubation time was 20 minutes for the C. albicans enzyme and 34 minutes for the human enzyme. Compounds are screened against a fungal and human enzyme to identify compounds which are selective for the fungal enzyme.

In a further experiment the test system is A. terreus 49. Description: MIC in YAG medium, A. terreus 49. It counts as cell-based. Conditions: Aspergillus terreus, 24 hrs at 35° C., >70% growth inhibition, read-out: MIC grade, A. terreus 49. Here is the method:
as §3, §4, §7, §8

In the next experiment the test system is Aspergillus terreus. Nature of the experiment: MIC in YAG medium, A. terreus. It counts as cell-based. The conditions noted are these: 24 hrs at 35° C., >70% growth inhibition, read-out: MIC grade, A. terreus. The method, then:
as §3, §4, §7, §8

For experiment [5], the system named is Aspergillus flavus. Description: MIC in YAG medium, A. flavus. The class given is cell-based. Conditions: 24 hrs at 35° C., >70% growth inhibition, read-out: MIC grade, A. flavus. The method, then:
as §3, §4, §7, §8

The subject of the next experiment is Aspergillus terreus AT49. Description: MIC in RPMI medium, A. terreus 49. Conditions: 24-48 hrs at 35° C., >80% growth inhibition, read-out: MIC grade, A. terreus 49. It counts as cell-based. The method, then: as §3, §4, §5, §6
Experiment [6] concerns Aspergillus niger. Description: MIC in YAG medium, A. niger. It counts as cell-based. Conditions: 24 hrs at 35° C., >70% growth inhibition, read-out: MIC grade, A. niger. The method, then:
as §3, §4, §7, §8

The next experiment relates to Aspergillus terreus AT4. Nature of the experiment: MIC in RPMI medium, A. terreus. The conditions noted are these: 24-48 hrs at 35° C., >80% growth inhibition, read-out: MIC grade, A. terreus. The class given is cell-based. The method, then:
as §3, §4, §5, §6

For experiment [7], the system named is Aspergillus flavus. Description: MIC in RPMI medium, A. flavus. The class given is cell-based. Conditions: 24-48 hrs at 35° C., >80% growth inhibition, read-out: MIC grade, A. flavus. Here is the method: as §3, §4, §5, §6
In experiment [8] the test system is Aspergillus fumigatus AF293. Nature of the experiment: MIC in RPMI medium, A. fumigatus. The conditions noted are these: 24-48 hrs at 35° C., >80% growth inhibition, read-out: MIC grade, A. fumigatus. It counts as cell-based. Here is the method: as §3, §4, §5, §6

In brackets after ≈: the same amount, converted by molar mass.

T1 sequence (Q02127 31-395 limits assumed): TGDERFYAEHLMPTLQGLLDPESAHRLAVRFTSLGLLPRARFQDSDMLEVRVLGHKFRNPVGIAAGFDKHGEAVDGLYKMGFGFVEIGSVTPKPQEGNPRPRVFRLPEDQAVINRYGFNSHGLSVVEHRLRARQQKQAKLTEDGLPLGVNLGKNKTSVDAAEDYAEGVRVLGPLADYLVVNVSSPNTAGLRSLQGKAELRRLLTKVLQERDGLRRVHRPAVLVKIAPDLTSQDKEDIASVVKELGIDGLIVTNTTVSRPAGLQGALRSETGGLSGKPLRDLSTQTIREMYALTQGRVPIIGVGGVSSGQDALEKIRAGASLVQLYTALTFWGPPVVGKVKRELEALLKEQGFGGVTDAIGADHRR
Sequence of Recombinant A. fumigatus DHODH (Q4X169 entry or part of it): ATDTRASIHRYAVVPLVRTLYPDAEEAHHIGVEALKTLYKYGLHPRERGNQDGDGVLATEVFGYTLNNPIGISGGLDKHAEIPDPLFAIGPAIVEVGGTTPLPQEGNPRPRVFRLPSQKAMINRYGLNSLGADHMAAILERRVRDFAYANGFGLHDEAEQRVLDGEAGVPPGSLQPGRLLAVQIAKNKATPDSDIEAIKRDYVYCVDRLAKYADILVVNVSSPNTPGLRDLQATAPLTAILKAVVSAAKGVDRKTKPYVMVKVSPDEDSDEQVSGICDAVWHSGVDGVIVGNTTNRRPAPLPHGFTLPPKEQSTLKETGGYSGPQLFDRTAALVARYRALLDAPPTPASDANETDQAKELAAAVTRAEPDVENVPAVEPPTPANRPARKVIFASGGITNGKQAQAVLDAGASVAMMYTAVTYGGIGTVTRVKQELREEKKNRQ

Regarding `COc1ccccc1-n1c(SC(C)C)nc2ccccc2c1=O` [Compound Example 7, 2-Isopropylsulfanyl-3-(2-methoxy-phenyl)-3H-quinazolin-4-one], the results for the IC50 in [1] and in experiment [4] were 50.1 µM and 11.6 µM, respectively. The MIC in experiment [2] is 1 to 10 µg/mL (≈ 3.06 to 30.6 µM); in the experiment on Aspergillus niger [3], under 1 µg/mL; in the experiment on A. fumigatus 210 it was under 1 µg/mL; with Aspergillus fumigatus it was under 1 µg/mL; with A. terreus 49 it was 1 to 10 µg/mL (≈ 3.06 to 30.6 µM); with Aspergillus terreus, under 1 µg/mL. Moreover, the MIC was over 10 µg/mL in the experiment on Aspergillus flavus [5]; 1 to 10 µg/mL (≈ 3.06 to 30.6 µM) with Aspergillus terreus AT49; under 1 µg/mL in the experiment on Aspergillus niger [6]; 1 to 10 µg/mL (≈ 3.06 to 30.6 µM) in the experiment on Aspergillus terreus AT4; over 10 µg/mL with Aspergillus flavus [7]; 1 to 10 µg/mL (≈ 3.06 to 30.6 µM) in experiment [8].

For the compound `COc1ccccc1-n1c(SC(C)C)nc2cccc(OC)c2c1=O` [Compound Example 4, 2-Isopropylsulfanyl-5-methoxy-3-(2-methoxy-phenyl)-3H-quinazolin-4-one], the figures for the concentration for half-maximal inhibition (IC50) in experiment [1] and in experiment [4] were 73 µM and 4.95 µM, respectively. Also, the MIC in [2] is 1 to 10 µg/mL (≈ 2.81 to 28.1 µM); in the experiment with Aspergillus niger [3], under 1 µg/mL; in the experiment with A. fumigatus 210, under 1 µg/mL; with Aspergillus fumigatus it was under 1 µg/mL; in the experiment with A. terreus 49, under 1 µg/mL; with Aspergillus terreus, under 1 µg/mL. In addition, the MIC in the experiment on Aspergillus flavus [5] was 1 to 10 µg/mL (≈ 2.81 to 28.1 µM); in the experiment with Aspergillus terreus AT49, 1 to 10 µg/mL (≈ 2.81 to 28.1 µM); in the experiment on Aspergillus niger [6] it was under 1 µg/mL; in the experiment with Aspergillus terreus AT4, 1 to 10 µg/mL (≈ 2.81 to 28.1 µM); with Aspergillus flavus [7] it was over 10 µg/mL; in experiment [8], under 1 µg/mL.

`CC(C)Sc1nc2ccccc2c(=O)n1-c1ccccc1C(C)C` [Compound Example 8, 3-(2-Isopropyl-phenyl)-2-isopropylsulfanyl-3H-quinazolin-4-one]: the IC50 in experiment [1] was 131 µM; in experiment [4], 12.2 µM. The MIC was 1 to 10 µg/mL (≈ 2.95 to 29.5 µM) in [2]; under 1 µg/mL in the experiment with Aspergillus niger [3]; under 1 µg/mL in the experiment with A. fumigatus 210; under 1 µg/mL with Aspergillus fumigatus; under 1 µg/mL in the experiment on A. terreus 49; under 1 µg/mL in the experiment with Aspergillus terreus. Also, the minimum inhibitory concentration (MIC) with Aspergillus flavus [5] was over 10 µg/mL; with Aspergillus terreus AT49 it was 1 to 10 µg/mL (≈ 2.95 to 29.5 µM); in the experiment with Aspergillus niger [6], under 1 µg/mL; in the experiment on Aspergillus terreus AT4, over 10 µg/mL; in the experiment with Aspergillus flavus [7], over 10 µg/mL; in experiment [8], under 1 µg/mL.
